Laboratory results taken from patent EP2103614A1, “Substituted imidazopyrimidine, imidazopyrazine and imidazopyridazine derivatives as melanocortin-4 receptor modulators” (Santhera Pharmaceuticals (Schweiz) AG, priority 2008, dated 2009).
Like-named read-outs stand apart in the source and are kept apart here.

How the values were obtained:
hMC-4R [1] = target: T1, hMC-4R (Homo sapiens, UniProt P32245); test: Functional assay (membrane based cAMP fluorescence polarization, agonistic activity); assay type: biochemical; conditions: cAMP produced compared to stimulation with NDP-alpha-MSH; read-out: % activation functional assay
T1 construct: expressed in transfected cells; host or cells: HEK293
Description: Agonistic activity of human melanocortin receptors is determined in a homogeneous membrane based assay.
Membrane preparations from HEK293 cells expressing the human melanocortin receptors are added. After a short preincubation period, an appropriate amount of ATP, GTP and the cAMP antibody is added and the plate is further incubated before the fluorescence labeled cAMP conjugate is dispensed. The plate is incubated for 2 h at 4°C before it is read on a fluorescence polarization microplate reader. The amount of cAMP produced as a response to a test compound is compared to the production of cAMP resulting from stimulation with NDP-alpha-MSH.

hMC-4R [2] = target: T1, hMC-4R; test: Membrane binding assay (fluorescence polarization, competition with fluorescence labeled NDP-alpha-MSH)
[3] = HEK293 cell membrane preparations expressing human melanocortin receptors, 5 h at room temperature, read-out: hMC-4R binding assay IC50/µM

T1 sequence (P32245 whole entry): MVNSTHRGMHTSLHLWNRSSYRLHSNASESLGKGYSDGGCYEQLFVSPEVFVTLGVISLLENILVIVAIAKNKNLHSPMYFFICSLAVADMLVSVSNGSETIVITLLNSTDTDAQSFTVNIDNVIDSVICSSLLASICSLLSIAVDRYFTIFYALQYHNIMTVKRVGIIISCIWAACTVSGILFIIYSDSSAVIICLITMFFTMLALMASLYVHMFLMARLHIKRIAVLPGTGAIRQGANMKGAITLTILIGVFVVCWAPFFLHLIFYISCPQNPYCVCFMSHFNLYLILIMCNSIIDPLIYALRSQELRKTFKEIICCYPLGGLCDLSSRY

SMILES	Emax (hMC-4R [1]) [%]	IC50 (hMC-4R [2]) [µM]	IC50 (hMC-4R [2]; [3]) [µM]
CC(C)CCN(CCC(C)C)C(=O)c1ccc2nc(-c3ccc4c(c3)OCCO4)c(CCCN)n2n1 [Example 2]	0	1.1	
CC(C)CCN(CCC(C)C)C(=O)c1cnc2nc(-c3ccc(C#N)cc3)c(CCCN(C)C)n2c1 [Example 6]	0	1	
CC(C)CCN(CCC(C)C)C(=O)c1cn2c(CCCN3CCCC3)c(-c3ccc(C(N)=O)cc3)nc2cn1 [Example 9]	0		0.048
CC(C)CCN(CCC(C)C)C(=O)c1cn2c(CCCN(C)C)c(-c3ccc(C#N)cc3)nc2cn1 [Example 8]	0		0.19
CC(C)CCN(CCC(C)C)C(=O)c1cn2c(CCCN3CCCC3)c(-c3ccc(C#N)cc3)nc2cn1 [Example 7]	0	0.02	
CC(C)CCN(CCC(C)C)C(=O)c1ccc2nc(-c3ccc4c(c3)OCCO4)c(CCCN3CCCCC3)n2n1 [Example 3]	0		0.12
CC(C)CCN(CCC(C)C)C(=O)c1cnc2nc(-c3ccc(C#N)cc3)c(CCCN3CCCC3)n2c1 [Example 5]	0	0.18	
CC(C)CCN(CCC(C)C)C(=O)c1ccc2nc(-c3ccc(C#N)cc3)c(CCCN3CCCC3)n2n1 [Example 4]	0	0.3	
COc1ccc(Nc2nc3ccc(C(=O)N(CCC(C)C)CCC(C)C)nn3c2CCCN)cc1 [Example 1]	0	0.49	
CC(C)CCN(CCC(C)C)C(=O)c1cn2c(CCCN(C)C)c(-c3ccc(C(N)=O)cc3)nc2cn1 [Example 10]	0	0.28	
